Publication PMC7914897, “Cytotoxic Potential of a-Azepano- and 3-Amino-3,4-SeCo-Triterpenoids” (International Journal of Molecular Sciences, 2021)
Like-named read-outs stand apart in the source and are kept apart here.

Legend:
MCF7 (Breast cancer) = test: NCI-60 screen (SRB, 48 h); conditions: Homo sapiens; for GI50: MCF7; for IC (TGI): MCF7, 48 h, read-out: TGI
SF-539 (CNS cancer) = test: NCI-60 screen (SRB, 48 h); conditions: Homo sapiens; for GI50: SF-539; for IC (TGI): SF-539, 48 h, read-out: TGI; for CC50: SF-539, read-out: LC50
MALME-3M (Melanoma) = test: NCI-60 screen (SRB, 48 h); conditions: Homo sapiens; for IC (TGI): 48 h, read-out: TGI
[1] = tested on: A375 (malignant melanoma); test: SRB cytotoxicity assay, 72 h; format: cell-based, human; conditions: Homo sapiens, A-375, 72 h, A375, 72 h, cut-off 30 µM; read-out: EC50
Summary of the method: (§1)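 Cytotoxicity is measured colorimetrically with sulforhodamine B after 72 h exposure to compound concentrations of 0–30 µM, added 24 h after seeding of exponentially growing cells. Survival relative to untreated wells yields EC50.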

[2] = tested on: HT29 (colorectal carcinoma); test: SRB cytotoxicity assay, 72 h; format: cell-based, human; conditions: Homo sapiens, HT-29; HT29, 72 h, cut-off 30 µM; read-out: EC50
Summary of the method: as §1

[3] = tested on: A2780 (ovarian carcinoma); test: SRB cytotoxicity assay, 72 h; format: cell-based, human; conditions: Homo sapiens; A2780, 72 h, cut-off 30 µM; read-out: EC50
Summary of the method: as §1

[4] = tested on: FaDu (hypopharyngeal carcinoma); test: SRB cytotoxicity assay, 72 h; format: cell-based, human; conditions: Homo sapiens, cut-off 30 µM, read-out: EC50
Summary of the method: as §1

MCF-7 (breast carcinoma) = test: SRB cytotoxicity assay, 72 h; format: cell-based, human; conditions: Homo sapiens, MCF7; MCF-7, 72 h, cut-off 30 µM; read-out: EC50
Summary of the method: as §1

Prostate cancer subpanel = test: NCI-60 screen, subpanel; conditions: Homo sapiens; for IC (TGI): 48 h, read-out: TGI MG_MID; for GI50: read-out: GI50 MG_MID; for CC50: read-out: LC50 MG_MID
SK-MEL-2 (Melanoma) = test: NCI-60 screen (SRB, 48 h); conditions: Homo sapiens; for GI50: SK-MEL-2; for IC (TGI): SK-MEL-2, 48 h, read-out: TGI
BT-549 (Breast cancer) = test: NCI-60 screen (SRB, 48 h); format: cell-based; conditions: Homo sapiens; for GI50: BT-549; for IC (TGI): BT-549, 48 h
SF-295 (CNS cancer) = test: NCI-60 screen (SRB, 48 h); conditions: Homo sapiens; for GI50: SF-295; for IC (TGI): SF-295, 48 h, read-out: TGI
UO-31 (Renal cancer) = test: NCI-60 screen (SRB, 48 h); conditions: Homo sapiens; for GI50: UO-31; for IC (TGI): UO-31, 48 h, read-out: TGI; for CC50: UO-31, read-out: LC50
CCRF-CEM (Leukemia) = test: NCI-60 screen (SRB, 48 h); conditions: Homo sapiens; for CC50: read-out: LC50
A498 (Renal cancer) = test: NCI-60 screen (SRB, 48 h); conditions: Homo sapiens; for GI50: A498; for IC (TGI): A498, 48 h, read-out: TGI; for CC50: A498, read-out: LC50
SN12C (Renal cancer) = test: NCI-60 screen (SRB, 48 h); conditions: Homo sapiens; for IC (TGI): 48 h, read-out: TGI
CNS cancer subpanel = test: NCI-60 screen, subpanel; conditions: Homo sapiens; for IC (TGI): 48 h, read-out: TGI MG_MID; for GI50: read-out: GI50 MG_MID; for CC50: read-out: LC50 MG_MID
[5] = tested on: NIH 3T3 (non-malignant mouse fibroblasts); test: SRB cytotoxicity assay, 72 h; format: cell-based; conditions: Mus musculus, NIH3T3; NIH 3T3, 72 h, cut-off 30 µM; read-out: EC50
Summary of the method: as §1

HCT-116 (Colon cancer) = test: NCI-60 screen (SRB, 48 h); conditions: Homo sapiens; for GI50: HCT-116; for activity at 10 µM: read-out: Growth % of the Most Sensitive Cell Lines
K-562 (Leukemia) = test: NCI-60 screen (SRB, 48 h); conditions: Homo sapiens; for GI50: K562; for CC50: K562, read-out: LC50
Melanoma subpanel = test: NCI-60 screen, subpanel; conditions: Homo sapiens; for IC (TGI): 48 h, read-out: TGI MG_MID; for GI50: read-out: GI50 MG_MID; for CC50: read-out: LC50 MG_MID
HT29 (Colon cancer) = test: NCI-60 screen (SRB, 48 h); conditions: Homo sapiens; for GI50: HT-29; for IC (TGI): HT-29, 48 h, read-out: TGI
NSC lung cancer subpanel = test: NCI-60 screen, subpanel; conditions: Homo sapiens; for IC (TGI): 48 h, read-out: TGI MG_MID; for GI50: read-out: GI50 MG_MID; for CC50: read-out: LC50 MG_MID
MDA-MB-435 (Melanoma) = test: NCI-60 screen (SRB, 48 h); format: cell-based
KM12 (Colon cancer) = test: NCI-60 screen (SRB, 48 h); conditions: Homo sapiens; for GI50: KM12; for IC (TGI): KM12, 48 h, read-out: TGI

Cc1ccc(S(=O)(=O)OC[C@]23CCC(C)(C)C[C@H]2C2=CC[C@@H]4[C@@]5(C)CCCNC(C)(C)[C@@H]5CC[C@@]4(C)[C@]2(C)CC3)cc1 [Compound 15]
GI50 (MCF7 (Breast cancer)): 1620 nM
IC (TGI) (MCF7 (Breast cancer)): 3380 nM
GI50 (SF-539 (CNS cancer)): 1710 nM
IC (TGI) (SF-539 (CNS cancer)): 3150 nM
CC50 (SF-539 (CNS cancer)): 5790 nM
GI50 (MALME-3M (Melanoma)): 1770 nM
IC (TGI) (MALME-3M (Melanoma)): 3560 nM
EC50 [1]: 2360 ± 100 nM
EC50 [2]: 2330 ± 200 nM
EC50 [3]: 1480 ± 200 nM
EC50 [4]: 2020 ± 200 nM
EC50 (MCF-7 (breast carcinoma)): 2400 ± 100 nM
IC (TGI) (Prostate cancer subpanel): 3270 nM
GI50 (Prostate cancer subpanel): 1720 nM
CC50 (Prostate cancer subpanel): 6350 nM
GI50 (SK-MEL-2 (Melanoma)): 2190 nM
IC (TGI) (SK-MEL-2 (Melanoma)): 4830 nM
CC50 (SK-MEL-2 (Melanoma); SK-MEL-2, read-out: LC50): 16400 nM
GI50 (BT-549 (Breast cancer)): 1900 nM
IC (TGI) (BT-549 (Breast cancer)): 3780 nM
GI50 (SF-295 (CNS cancer)): 1710 nM
IC (TGI) (SF-295 (CNS cancer)): 3300 nM
GI50 (UO-31 (Renal cancer)): 1290 nM
IC (TGI) (UO-31 (Renal cancer)): 2680 nM
CC50 (UO-31 (Renal cancer)): 5580 nM
GI50 (CCRF-CEM (Leukemia)): 1930 nM
CC50 (CCRF-CEM (Leukemia)): > 100000 nM
GI50 (A498 (Renal cancer)): 5990 nM
IC (TGI) (A498 (Renal cancer)): 21400 nM
CC50 (A498 (Renal cancer)): 57600 nM
GI50 (SN12C (Renal cancer)): 1670 nM
IC (TGI) (SN12C (Renal cancer)): 3300 nM
IC (TGI) (CNS cancer subpanel): 4110 nM
GI50 (CNS cancer subpanel): 1780 nM
CC50 (CNS cancer subpanel): 26500 nM
EC50 [5]: 2760 ± 300 nM
GI50 (HCT-116 (Colon cancer)): 1800 nM
activity at 10 µM (HCT-116 (Colon cancer); HCT-116, 48 h): -83%
GI50 (K-562 (Leukemia)): 1750 nM
CC50 (K-562 (Leukemia)): > 100000 nM
IC (TGI) (Melanoma subpanel): 3530 nM
GI50 (Melanoma subpanel): 1810 nM
CC50 (Melanoma subpanel): 16400 nM
GI50 (HT29 (Colon cancer)): 1640 nM
IC (TGI) (HT29 (Colon cancer)): 3230 nM
IC (TGI) (NSC lung cancer subpanel): 3420 nM
GI50 (NSC lung cancer subpanel): 3140 nM
CC50 (NSC lung cancer subpanel): 53400 nM
GI50 (MDA-MB-435 (Melanoma); Homo sapiens, MDA-MB-435): 1610 nM
IC (TGI) (MDA-MB-435 (Melanoma); Homo sapiens, MDA-MB-435, 48 h, read-out: TGI): 2970 nM
GI50 (KM12 (Colon cancer)): 1820 nM
IC (TGI) (KM12 (Colon cancer)): 3330 nM

C=C(C)C1CCC2(CO)CCC3(C)C(CCC4C5(C)CCCNC(C)(C)C5CCC43C)C12 (stereo not shown) [Compound 1, Azepanobetulin]
GI50 (MCF7 (Breast cancer)): 1290 nM
IC (TGI) (MCF7 (Breast cancer)): 2770 nM
CC50 (MCF7 (Breast cancer); MCF7, read-out: LC50): 5940 nM
GI50 (SF-539 (CNS cancer)): 1580 nM
IC (TGI) (SF-539 (CNS cancer)): 3010 nM
CC50 (SF-539 (CNS cancer)): 5720 nM
GI50 (MALME-3M (Melanoma)): 1500 nM
IC (TGI) (MALME-3M (Melanoma)): 3050 nM
CC50 (MALME-3M (Melanoma); read-out: LC50): 6180 nM
EC50 [1]: 2520 ± 200 nM
EC50 [2]: 1630 ± 300 nM
EC50 [3]: 2390 ± 200 nM
EC50 [4]: 2320 ± 300 nM
EC50 (MCF-7 (breast carcinoma)): 1910 ± 100 nM
IC (TGI) (Prostate cancer subpanel): 2980 nM
GI50 (Prostate cancer subpanel): 2980 nM
CC50 (Prostate cancer subpanel): 5660 nM
GI50 (SK-MEL-2 (Melanoma)): 1840 nM
IC (TGI) (SK-MEL-2 (Melanoma)): 3750 nM
GI50 (BT-549 (Breast cancer)): 1790 nM
IC (TGI) (BT-549 (Breast cancer)): 3460 nM
GI50 (SF-295 (CNS cancer)): 1660 nM
IC (TGI) (SF-295 (CNS cancer)): 3130 nM
CC50 (SF-295 (CNS cancer); SF-295, read-out: LC50): 5900 nM
GI50 (UO-31 (Renal cancer)): 1560 nM
IC (TGI) (UO-31 (Renal cancer)): 2990 nM
CC50 (UO-31 (Renal cancer)): 5740 nM
GI50 (CCRF-CEM (Leukemia)): 2070 nM
IC (TGI) (CCRF-CEM (Leukemia); 48 h, read-out: TGI): 4910 nM
CC50 (CCRF-CEM (Leukemia)): > 100000 nM
GI50 (A498 (Renal cancer)): 2170 nM
IC (TGI) (A498 (Renal cancer)): 5630 nM
CC50 (A498 (Renal cancer)): 33000 nM
GI50 (SN12C (Renal cancer)): 1620 nM
IC (TGI) (SN12C (Renal cancer)): 3030 nM
CC50 (SN12C (Renal cancer); read-out: LC50): 5690 nM
IC (TGI) (CNS cancer subpanel): 3150 nM
GI50 (CNS cancer subpanel): 1650 nM
CC50 (CNS cancer subpanel): 5980 nM
EC50 [5]: 1600 ± 400 nM
GI50 (HCT-116 (Colon cancer)): 1290 nM
activity at 10 µM (HCT-116 (Colon cancer); HCT-116, 48 h): -79%
IC (TGI) (HCT-116 (Colon cancer); HCT-116, 48 h, read-out: TGI): 2630 nM
CC50 (HCT-116 (Colon cancer); HCT-116, read-out: LC50): 5380 nM
GI50 (K-562 (Leukemia)): 1080 nM
IC (TGI) (K-562 (Leukemia); K562, 48 h, read-out: TGI): 3790 nM
CC50 (K-562 (Leukemia)): > 100000 nM
IC (TGI) (Melanoma subpanel): 3190 nM
GI50 (Melanoma subpanel): 1640 nM
CC50 (Melanoma subpanel): 6120 nM
GI50 (HT29 (Colon cancer)): 1270 nM
IC (TGI) (HT29 (Colon cancer)): 2850 nM
IC (TGI) (NSC lung cancer subpanel): 3350 nM
GI50 (NSC lung cancer subpanel): 1710 nM
CC50 (NSC lung cancer subpanel): 6490 nM
IC (TGI) (MDA-MB-435 (Melanoma); Homo sapiens, MDA-MB-435, 48 h; read-out: TGI): 2950 nM
GI50 (MDA-MB-435 (Melanoma); Homo sapiens, MDA-MB-435; read-out: GI50): 1560 nM
GI50 (KM12 (Colon cancer)): 1730 nM
IC (TGI) (KM12 (Colon cancer)): 3240 nM
CC50 (KM12 (Colon cancer); KM12, read-out: LC50): 6090 nM
